Assay results published in patent US20250057912A1, “Compounds” (priority 2021, published 2025).

Assays:
[1] = biological target: T1, α4β1 RAMOS/VCAM-1 adhesion (Homo sapiens, UniProt P05556+P13612); assay: Integrin α4β1-VCAM-1 cell adhesion assay, RAMOS cells (Example 7); type: cell-based; settings: rhVCAM-1 coated plate, DMEM binding buffer
T1 construct: host or cells: RAMOS
Experimental: The human B lymphocyte cell line RAMOS was obtained from the Zealand Pharma culture collection.
Compound 1 and Comparative compounds 1 and 2 were reconstituted in DMSO to a concentration of 10 mM.
CFSE-labelled RPMI 8866 cells were added to the plate coated with rhMAdCAM-1 and CFSE-labelled RAMOS cells were added to the plate coated with rhVCAM-1.
After incubation, unbound cells were washed away. The cell plates were emptied by inverting and residues of liquid were removed by blotting on paper towel.

[2] = biological target: T2, α4β7 RPMI8866/MAdCAM-1 adhesion (Homo sapiens, UniProt P13612+P26010); assay: Integrin α4β7-MAdCAM cell adhesion assay, RPMI8866 cells (Example 7); type: cell-based
T2 construct: CFSE-labelled RPMI 8866 cells were added to the plate coated with rhMAdCAM-1; host or cells: RPMI 8866
T2 sequence (P13612 34-1032): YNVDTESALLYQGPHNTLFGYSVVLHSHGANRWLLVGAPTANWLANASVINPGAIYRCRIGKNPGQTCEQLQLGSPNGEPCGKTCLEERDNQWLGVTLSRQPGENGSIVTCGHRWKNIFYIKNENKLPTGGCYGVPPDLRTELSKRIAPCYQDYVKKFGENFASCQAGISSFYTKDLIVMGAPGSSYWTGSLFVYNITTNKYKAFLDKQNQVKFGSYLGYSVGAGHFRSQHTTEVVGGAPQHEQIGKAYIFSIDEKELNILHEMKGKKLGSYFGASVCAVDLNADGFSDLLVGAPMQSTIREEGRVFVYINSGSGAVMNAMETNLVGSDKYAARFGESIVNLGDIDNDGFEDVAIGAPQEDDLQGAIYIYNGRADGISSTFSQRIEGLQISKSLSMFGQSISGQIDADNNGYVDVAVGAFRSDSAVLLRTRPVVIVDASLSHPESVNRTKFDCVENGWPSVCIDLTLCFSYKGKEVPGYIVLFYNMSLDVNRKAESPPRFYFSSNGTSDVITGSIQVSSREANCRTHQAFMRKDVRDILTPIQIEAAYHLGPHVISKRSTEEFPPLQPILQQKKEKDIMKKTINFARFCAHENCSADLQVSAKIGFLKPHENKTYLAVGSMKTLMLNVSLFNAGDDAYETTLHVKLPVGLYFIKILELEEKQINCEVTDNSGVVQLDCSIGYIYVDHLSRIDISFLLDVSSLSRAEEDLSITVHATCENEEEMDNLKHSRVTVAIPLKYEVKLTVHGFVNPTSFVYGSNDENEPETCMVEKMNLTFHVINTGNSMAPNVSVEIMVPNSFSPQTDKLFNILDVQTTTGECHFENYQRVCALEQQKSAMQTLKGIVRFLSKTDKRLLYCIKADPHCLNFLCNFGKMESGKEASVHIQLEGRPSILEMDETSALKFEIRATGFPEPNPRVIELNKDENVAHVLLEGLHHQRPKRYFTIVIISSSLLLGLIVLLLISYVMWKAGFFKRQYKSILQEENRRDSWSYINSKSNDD
T2 sequence (P26010 20-798): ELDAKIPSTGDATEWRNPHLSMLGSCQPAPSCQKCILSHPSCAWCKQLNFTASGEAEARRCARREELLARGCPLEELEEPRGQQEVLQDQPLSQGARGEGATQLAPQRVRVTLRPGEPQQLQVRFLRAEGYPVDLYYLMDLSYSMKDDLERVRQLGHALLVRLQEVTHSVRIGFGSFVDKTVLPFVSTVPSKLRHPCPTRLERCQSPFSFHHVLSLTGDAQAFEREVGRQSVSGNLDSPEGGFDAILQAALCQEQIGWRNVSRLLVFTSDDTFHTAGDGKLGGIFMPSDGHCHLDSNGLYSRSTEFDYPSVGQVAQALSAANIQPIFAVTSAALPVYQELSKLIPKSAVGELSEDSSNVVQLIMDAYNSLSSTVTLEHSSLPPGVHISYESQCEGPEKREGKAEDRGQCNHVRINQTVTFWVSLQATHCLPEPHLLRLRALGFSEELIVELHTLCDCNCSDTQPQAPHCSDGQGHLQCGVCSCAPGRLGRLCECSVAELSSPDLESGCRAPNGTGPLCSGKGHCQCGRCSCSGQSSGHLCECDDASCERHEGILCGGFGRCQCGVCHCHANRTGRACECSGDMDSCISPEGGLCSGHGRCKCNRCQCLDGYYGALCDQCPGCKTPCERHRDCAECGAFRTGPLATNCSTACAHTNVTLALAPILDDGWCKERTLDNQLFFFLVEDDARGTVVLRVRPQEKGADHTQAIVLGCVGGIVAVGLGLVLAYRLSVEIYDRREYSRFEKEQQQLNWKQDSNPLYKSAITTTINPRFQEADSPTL
Description: The cells were pelleted by centrifugation and resuspended in fresh pre-warmed complete culture medium and the cells were counted. […]

[3] = Pharmacokinetic characterisation in Beagle dogs, single s.c. injection, dose range (Example 6); type: in vivo; settings: male, plasma, dog, SC
Description: The dosing vehicle was PBS buffer, pH 7.

T1 sequence (P05556 21-798, one chain of several): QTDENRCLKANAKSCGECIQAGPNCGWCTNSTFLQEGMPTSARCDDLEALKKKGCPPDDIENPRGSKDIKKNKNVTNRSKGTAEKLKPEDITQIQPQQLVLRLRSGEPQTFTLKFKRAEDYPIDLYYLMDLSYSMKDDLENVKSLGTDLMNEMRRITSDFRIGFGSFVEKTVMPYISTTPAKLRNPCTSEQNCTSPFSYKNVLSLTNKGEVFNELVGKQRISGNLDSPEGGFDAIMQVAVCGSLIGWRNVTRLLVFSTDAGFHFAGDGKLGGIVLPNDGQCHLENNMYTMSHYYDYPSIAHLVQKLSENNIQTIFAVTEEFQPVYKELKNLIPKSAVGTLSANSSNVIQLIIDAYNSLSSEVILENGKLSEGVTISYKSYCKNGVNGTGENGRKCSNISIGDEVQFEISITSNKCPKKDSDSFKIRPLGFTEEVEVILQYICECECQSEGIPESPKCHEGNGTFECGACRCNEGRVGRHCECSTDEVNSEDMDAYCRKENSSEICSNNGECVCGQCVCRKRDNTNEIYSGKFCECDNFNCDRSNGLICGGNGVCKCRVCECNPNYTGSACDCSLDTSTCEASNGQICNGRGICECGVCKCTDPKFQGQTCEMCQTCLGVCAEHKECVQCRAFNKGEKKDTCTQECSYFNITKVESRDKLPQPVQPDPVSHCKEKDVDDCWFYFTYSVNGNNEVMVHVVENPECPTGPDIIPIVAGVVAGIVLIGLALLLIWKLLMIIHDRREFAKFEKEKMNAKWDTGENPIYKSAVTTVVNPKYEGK

SMILES: CC[C@H](C)[C@@H]1NC(=O)[C@H](CC(=O)O)NC(=O)[C@H](CC(C)C)NC(=O)c2ccc(-c3ccc(N4CCN(C(=O)c5ccccc5-c5ccccc5C(=O)N5CCN(c6ccc(-c7ccc8cc7CNC(=O)[C@@H]7CCCN7[C@H](C(=O)NC(C)(C)C)[C@H](C)NC(=O)[C@H]([C@@H](C)CC)NC(=O)[C@H](CC(=O)O)NC(=O)[C@H](CC(C)C)NC8=O)cc6)CC5)CC4)cc3)c(c2)CNC(=O)[C@@H]2CCCN2[C@H](C(=O)NC(C)(C)C)[C@H](C)NC1=O [Compound 1]
- IC50 [1]: 115 nM
- IC50 ([2]; RPMI 8866 cells, rhMAdCAM-1 coated plate, DMEM binding buffer): 7.2 nM
- Selectivity ratio ([2]; α4β1 RAMOS/VCAM-1 IC50 versus α4β7 RPMI8866/MAdCAM-1 IC50): 16.0
- AUC ([3]; 10 ug/kg): 2.46 µM·h
- AUC ([3]; 20 ug/kg): 5.68 µM·h
- AUC ([3]; 50 ug/kg): 11.6 µM·h
- AUC ([3]; 100 ug/kg): 58.6 µM·h
- AUC ([3]; 200 ug/kg): 72.5 µM·h
- AUC ([3]; 400 ug/kg): 158 µM·h
